Test results published in PMC7249419, “Probing contacts of inhibitor locked in transition states in the catalytic triad of DENV2 type serine protease and its mutants by 1H, 19F and 15 N NMR spectroscopy” (BMC Molecular and Cell Biology, 2020).
Values joined by “and” are separate entries in the source; they are usually repeats but may differ in a detail not shown here. Equal entries are not always repeated. “Also recorded” adds a separate entry of the source. Non-standard residues stand in square brackets, D forms with d. Residues, ends and D or L forms follow the SMILES beside them. ξ: configuration not given here. *: point of attachment. Benzoyl(2,6-F2) = O=C(c1c(F)cccc1F)*; Benzoyl(4-F) = O=C(c1ccc(F)cc1)*; ξR = N=C(N)NCCCC(N)C(=O)O; Nle = CCCC[C@H](N)C(=O)O; Bz = O=C(c1ccccc1)*; CF3 = FC(F)(F)*

Columns and labels:
[1] = tested on: NS2B:NS3pro (H51N); experiment: 19F and 1H-15N TROSY NMR binding to H51N mutant; design: species or system serotype II Dengue virus (DENV2); conditions: 1H-15N TROSY and 19F NMR, same protein:inhibitor ratio as wild type
From the text: (§1) Reagents were from Sigma (St. Louis, MO, USA) unless otherwise stated. DENV2 NS3pro (1–185; amino acids 1476–1660 of the polyprotein) and NS2B (containing amino acids 1394–1440 of the Dengue 2 polyprotein) constructs were generated as described. H51N and S135A mutations of active site residues were introduced using the QuikChange Lightning kit (Agilent); a double H51N/S135A mutant was generated sequentially. All sequences were confirmed by Sanger sequencing. NS2B and NS3pro were expressed separately in Escherichia coli expression strain BL21Star (DE3) (Life Technologies) as described. Proteins were expressed in Terrific Broth medium (MP Biomedicals) for unlabelled protein or in different isotopic labelling combinations in ^1/2H, ^15N, ^12/13C-labelled M9 medium for labelled protein [54]. […]
(§2) NMR experiments were acquired on Bruker Avance III spectrometers operating at 14.1 and 16.4 T at a temperature of 298 K. 2D ^1H-^15N TROSY -transverse relaxation optimized spectroscopy (TROSY) was used. ^19F experiments were acquired on a Bruker Avance III 16.4 T equipped with a QCIF CryoProbe, and internally referenced to the trifluoromethyl acetate counter ion (− 76.55 ppm). […] Protein detected experiments with ligand bound used a chemical shift perturbation (CSP) analysis was performed manually in CcpNmr Analysis 2.2.2 [60]. […]

[2] = tested on: NS2B:NS3pro (S135A); experiment: 19F and 1H-15N TROSY NMR binding to S135A mutant; design: species or system serotype II Dengue virus (DENV2); conditions: 1H-15N TROSY and 19F NMR
From the text: as §1, §2

[3] = biological target: T1, DENV2 NS2B:NS3pro (Dengue virus type 2, UniProt P29990); experiment: 19F NMR monitoring of inhibitor binding to wild-type NS2B:NS3pro; design: species or system serotype II Dengue virus (DENV2); conditions: 298 K
T1 construct: DENV2 NS3pro (1–185; amino acids 1476–1660 of the polyprotein); NS2B (containing amino acids 1394–1440 of the Dengue 2 polyprotein); His tag; made in house; host or cells: Escherichia coli BL21Star (DE3)
From the text: The subside part of peptide types of inhibitors either improves or prevents correct binding with the enzyme in the most favourable way. One way to probe stereo-selectivity in enzymes is to study an inhibitor with the wrong stereochemistry around the carbon, Cα, of the P1 (Arg) (for abbreviation see Table 1). The key question is: could both isomers bind to NS2B:NS3pro complex? If yes, is there any difference in affinity between them. To challenge these questions two separated diastereomers of Ph-Bz-Lys-Lys-Arg-CF3-ketone (III) (Table 1) with low affinity were used to observe the binding. The isolated diastereomers were kept in solution with and without the NS2B/NS3 complex for two months with measuring at several points. For the first separated isomer (IIIa), only one ^19F resonance is observed at − 82.83 ppm in the unbound state (Fig. 1a). […]
as §2

[4] = biological target: T1, DENV2 NS2B:NS3pro; experiment: 19F NMR solvent isotope shift (H2O vs D2O), water accessibility of NS2B:NS3pro complex; design: species or system serotype II Dengue virus (DENV2); conditions: inhibitor bound to DENV2 NS2B:NS3pro
Experimental: The accessibility of water in the binding site of the complex with bound inhibitor was tested by studying the ^19F spectra of the complexes NS2B:NS3pro (II) in two different solvents: H2O and D2O (Fig. S2). […] This CSP was scaled versus the signals of the same group of the unbound ligand, ca 48 Hz (Fig. S2c). The conclusion is that ^19F nuclei of the benzene ring of the bound inhibitor are partly exposed to the solvent even in the bound state.
The NS2B:NS3pro complex was concentrated in disposable centrifugal concentrators (e.g. Amicon Ultra centrifugal filter units) with a molecular weight cut-off of 10 kDa. The complex was stable during concentration and no leakage of NS2B occurred. Buffer was exchanged using gravity flow desalting columns (GE Healthcare). The NMR buffer contained 20 mM deuterated MES, 100 mM NaCl, 5 mM CaCl2, 0.02% NaN3, at pH 6.5. […]
as §2

[5] = biological target: T1, DENV2 NS2B:NS3pro; experiment: 1H-15N TROSY chemical shifts/CSP, oxyanion hole and H51 of NS2B:NS3pro complexes; type: binding, serotype II Dengue virus (DENV2)
Experimental: (§3) The NS2B:NS3pro complex was concentrated in disposable centrifugal concentrators (e.g. Amicon Ultra centrifugal filter units) with a molecular weight cut-off of 10 kDa. The complex was stable during concentration and no leakage of NS2B occurred. Buffer was exchanged using gravity flow desalting columns (GE Healthcare). The NMR buffer contained 20 mM deuterated MES, 100 mM NaCl, 5 mM CaCl2, 0.02% NaN3, at pH 6.5. The buffer-exchanged protein was concentrated to at least 0.3 mM. To obtain spectra in D2O buffer protein complex with inhibitor was lyophilized and dissolved adding only D2O water.
(§4) NMR experiments were acquired on Bruker Avance III spectrometers operating at 14.1 and 16.4 T at a temperature of 298 K. 2D ^1H-^15N TROSY -transverse relaxation optimized spectroscopy (TROSY) was used. ^19F experiments were acquired on a Bruker Avance III 16.4 T equipped with a QCIF CryoProbe, and internally referenced to the trifluoromethyl acetate counter ion (− 76.55 ppm). For solvent isotope shift measurements the buffer was exchanged from 90% H2O to 90% D2O using centrifugation filters by following dilution of the sample till starting concentration. The consistency of the procedure has been tested through comparison of the ^1H-^15N spectra before and after buffer exchange back to starting condition. There was no major structural perturbations resulted from exchange into deuterated buffer conditions. Protein detected experiments with ligand bound used a chemical shift perturbation (CSP) analysis was performed manually in CcpNmr Analysis 2.2.2 [60]. CSP was defined as the distance between two cross peaks in Hz, obtained as the square root of the sum of quadratic using DANGLE [61].
Backbone resonance assignment of the NS2B:NS3pro with tetra peptide boronic acid (I) was performed as described previously by us with depositing to the BioMagResBank with accession code 26996 [10, 62], and compared with published earlier for the same inhibitor complex but with the linked construct Dengue I NS2B:NS3pro (BioMagResBank with accession code 19305). Backbone resonance assignment have been done in the same manner for the complex NS2B:NS3pro with the tetra peptide tfk ligand (II) as well and will be published elsewhere. Partial assignments of the ^1H and ^15N resonances presented in this publication of the apo form NS2B:NS3pro and its mutants in complex with inhibitors observed to the uncrowded area of the ^1H-^15N spectra are made by the extrapolation of corresponding cross peaks to the closest one known amino acids using CCPN program tool. […]

[6] = biological target: T1, DENV2 NS2B:NS3pro; conditions: earlier NMR study; cited from earlier work
From the text: The unusual large low-filed shift of N^δ1H (19.93 ppm) of H51 combined with a N-H splitting of only 52 Hz clearly indicated the ...

[7] = biological target: T1, DENV2 NS2B:NS3pro; experiment: Low field 1D 1H NMR of NS2B:NS3pro complexes (LBHB, H51-D75); type: binding, serotype II Dengue virus (DENV2)
Experimental: as §3, with “The NMR buffer contained 20 mM deuterated MES, 100 mM NaCl, 5 mM CaCl2, 0.02% NaN3, at pH 6.5.” left out
as §4

[8] = biological target: T1, DENV2 NS2B:NS3pro; experiment: Biochemical protease activity assay, fluorogenic AMC substrate; design: species or system serotype II Dengue virus (DENV2); conditions: 50 mM HEPES pH 7.4, 150 mM NaCl, 10% ethylene glycol, 0.05% BSA, 0.0016% Brij-58; 80 nM enzyme; 20 μM Bz-nle-Lys-Arg-Arg-AMC; fluorescence 390/460 nm every 30 s for 30 min; three parameter IC50 fit
Experimental: Activity assays were carried out on a 96-well plate (white Cliniplate, Thermo Fisher Scientific Oy, Vantaa, Finland) in 50 mM HEPES, pH 7.4, 150 mM NaCl, 10% ethylene glycol, 0.05% BSA, 0.0016% Brij-58 with 80 nM enzyme using 20 μM Bz-nle-Lys-Arg-Arg-AMC (Bachem, Bubendorf, Switzerland) as substrate. Reagents were from Sigma (St. Louis, MO, USA) unless otherwise stated.
5 μl of 200 μM substrate in buffer and 2.5 μl of compound in DMSO or DMSO control were added to the plate. 42.5 μl of […] enzyme in buffer was added to start the reaction. Fluorescence was read every 30 s for 30 min at 390 nm excitation and 460 nm emission in a Fluorskan Ascent plate reader (Thermo Fisher Scientific Oy, Vantaa, Finland). Rates were fitted in the Ascent software and exported as Excel files. The rates were imported into GraphPad Prism (GraphPad Software Inc., La Jolla, CA, USA) and fitted to the standard three parameter IC50 equation.

Compound: CCCC[C@H](NC(=O)c1ccccc1)C(=O)N[C@@H](CCCCN)C(=O)N[C@@H](CCCNC(=N)N)C(=O)N[C@@H](CCCNC(=N)N)B(O)O [I, ((3S,6S,9S,12R)-17-amino-6-(4-aminobutyl)-3-butyl-9-(3-guanidinopropyl)-17-imino-1,4,7,10-tetraoxo-1-phenyl-2,5,8,11,16-pentaazaheptadecan-12-yl)boronic acid]
- Affinity / complex formation with H51N mutant [1]: saturation of the protease and inhibitor complex could not be reached
- Binding to S135A mutant [2]: do not interact with the S135A mutant; also recorded: no binding was observed; also recorded: complete absence of any binding
- Binding to NS2B:NS3pro / affinity in words (NMR) [3]: the former has higher affinity than the latter
- Bulk water access to active site [4]: bulk water is excluded from the active site
- H51-HN 1H chemical shift in complex ([5]; apo 10.56 and 10.18 ppm): 10.03 ppm
- H51-HN 15N chemical shift in complex ([5]; apo 114.44 and 114.37 ppm): 113.50 ppm
- Amide CSP of the oxyanion hole ([5]; complex vs apo form): ~0.3 ppm
- Interaction with oxyanion hole ([5]; complex with NS2B:NS3pro): we did not observe interaction of G133 in the oxyanion hole; also recorded: no interaction with the oxyanion hole
- N-H splitting of Nδ1H of H51 [6]: 52 Hz
- NδH shift of H51 in complex [6]: 19.93 ppm
- Decrease of Nδ1H one-bond coupling vs commonly reported serine proteases ([7]; commonly 87-95 Hz): about 38 Hz
- One bond JNH of Nδ1H H51, 19.93 ppm signal ([7]; first tautomer): 52+/− 2 Hz and 52 Hz
- One bond JNH of Nε2H H51 ([7]; first tautomer): 90+/− 2 Hz and 90 Hz
- Nδ1H of H51, second tautomer, 1H chemical shift ([7]; most persistent signal, pH 8.5 Tris): 19.77 ppm and 19.772 ppm
- pH dependence of low field 1H chemical shift ([7]; pH 5.5 to 8.5): None of the signals in this region shift between pH 5.5 and 8.5
- Nδ1H of H51, first tautomer, 1H chemical shift ([7]; pH 6.0 MES, not always observed): 19.93 ppm and 19.933 ppm
- One bond JNH of Nδ1H H51, 19.77 ppm signal ([7]; second tautomer): 52+/− 2 Hz and 52 Hz

Compound: CCCC[C@H](NC(=O)c1c(F)cccc1F)C(=O)N[C@@H](CCCCN)C(=O)N[C@@H](CCCNC(=N)N)C(=O)NC(CCCNC(=N)N)C(=O)C(F)(F)F (stereo partly drawn) [II, N-((9S,12S,15S)-1-amino-12-(4-aminobutyl)-9-(3-guanidinopropyl)-1-imino-8,11,14-trioxo-6-(2,2,2-trifluoroacetyl)-2,7,10,13-tetraazanonadecan-15-yl)-2,6-difluorobenzamide] ({Benzoyl(2,6-F2)}-[Nle]KR[ξR]-CF3)
- IC50 [8]: 19 µM

Compound: CCCC[C@H](NC(=O)c1ccccc1)C(=O)N[C@@H](CCCCN)C(=O)N[C@@H](CCCNC(=N)N)C(=O)NC(CCCNC(=N)N)C(=O)C(F)(F)F (stereo partly drawn) [IV, N-((9S,12S,15S)-1-amino-12-(4-aminobutyl)-9-(3-guanidinopropyl)-1-imino-8,11,14-trioxo-6-(2,2,2-trifluoroacetyl)-2,7,10,13-tetraazanonadecan-15-yl)benzamide] (Bz-[Nle]KR[ξR]-CF3)
- IC50 [8]: 11 µM

Compound: CCCC[C@H](NC(=O)c1ccc(F)cc1)C(=O)N[C@@H](CCCCN)C(=O)N[C@@H](CCCNC(=N)N)C(=O)NC(CCCNC(=N)N)C(=O)C(F)(F)F (stereo partly drawn) [V, N-((9S,12S,15S)-1-amino-12-(4-aminobutyl)-9-(3-guanidinopropyl)-1-imino-8,11,14-trioxo-6-(2,2,2-trifluoroacetyl)-2,7,10,13-tetraazanonadecan-15-yl)-4-fluorobenzamide] ({Benzoyl(4-F)}-[Nle]KR[ξR]-CF3)
- IC50 [8]: 24 µM

Compound: Bz-Nle-Lys-Arg-Arg-CF3-ketone [IVa, isomer IVa of (IV), free 19F at − 82.82 ppm]
- Binding to NS2B:NS3pro / affinity in words (NMR) [3]: the signal of only one isomer (IVa) re-appeared
